Experimental findings from publication PMC10218498, “Exploring BenzylethoxyAryl Urea Scaffolds for Multitarget Immunomodulation Therapies” (International Journal of Molecular Sciences, 2023) are described below.

Data set [1] concerns A-549 (pulmonary adenocarcinoma). Nature of the data set: MTT cell proliferation assay, A-549. In kind it is cell-based, human. The note with it: for IC50: Homo sapiens, A549, 48 h of treatment, read-out: IC50 A-549; for IC50 / effect on cancer cell proliferation (A-549), in words: MTT. On the procedure: (§1) The 3-(4,5-dimethylthiazol-2-yl)-2,5-diphenyltetrazolium bromide (MTT; Sigma Chemical Co.) dye reduction assay in 96-well microplates was used. […] After that, the supernatant was discarded and replaced by 100 µL of DMSO to dissolve formazan crystals. The absorbance was then read at 550 nm by spectrophotometry. For all concentrations of compound, cell viability was expressed as the percentage of the ratio between the mean absorbance of treated cells and the mean absorbance of untreated cells. Three independent experiments were performed, and the IC50 values (i.e., concentration half inhibiting cell proliferation) were graphically determined using GraphPad Prism 4 software.

Data set [2] has as its system HEK-293 (human embryonic kidney cells). Nature of the data set: MTT cell proliferation assay, HEK-293. The note with it: HEK293, 48 h of treatment. Type of data set: cell-based. On the procedure:
(§2) This assay allowed us to establish the corresponding IC50 values (expressed as the concentration, in μM, at which 50% of cell viability is achieved), shown in Table 1.
(§3) In 96-well plates, 5 × 10^3 (HT-29, MCF-7, A549, HMEC-1, Jurkat, and HEK-293) cells per well were incubated with serial dilutions of the tested compounds in a total volume of 100 μL of their respective growth media. The 3-(4,5-dimethylthiazol-2-yl)-2,5-diphenyltetrazolium bromide (MTT; Sigma Chemical Co.) dye reduction assay in 96-well microplates was used. After 2 days of incubation (37 °C, 5% CO2 in a humid atmosphere), 10 μL of MTT (5 mg/mL in phosphate-buffered saline, PBS) was added to each well, and the plate was incubated for a further 3 h (37 °C). After that, the supernatant was discarded and replaced by 100 µL of DMSO to dissolve formazan crystals. The absorbance was then read at 550 nm by spectrophotometry. For all concentrations of compound, cell viability was expressed as the percentage of the ratio between the mean absorbance of treated cells and the mean absorbance of untreated cells. Three independent experiments were performed, and the IC50 values (i.e., concentration half inhibiting cell proliferation) were graphically determined using GraphPad Prism 4 software.
On the technique in general: Tetrazolium assays rely on reduction of a dye to a coloured formazan, in cell work by metabolically active cells.

Data set [3] relates to human microvessel endothelial cells (HMEC-1). Nature of the data set: MTT cell proliferation assay, HMEC-1. As to conditions: 48 h of treatment. Type of data set: cell-based. The method, then: as §2, §3
Data set [4] has as its system HT-29 (colon adenocarcinoma). Nature of the data set: MTT cell proliferation assay, HT-29. Type of data set: cell-based, human. The note with it: for IC50: Homo sapiens, HT-29, 48 h of treatment, read-out: IC50 HT-29; for IC50 / effect on cancer cell proliferation (HT-29), in words: MTT. The method, then: as §1
The test system of the next data set is Jurkat T cells. Nature of the data set: MTT cell proliferation assay, Jurkat T cells. The note with it: Homo sapiens, 48 h of treatment. Type of data set: cell-based. The method, then: as §2, §3
The subject of a further data set is LCK. Nature of the data set: Immunoblotting of OT-1 CTL signaling proteins: LCK. In kind it is cell-based, mice. As to conditions: OT-1, 20 μM, 24 h. The text has this: (§4) We next studied the effect of our compounds on the signaling cascade downstream of the TCR. […] However, both the expression and phosphorylation of LCK were increased in response to all compounds. The effects on ZAP70 and LAT were more complex, with opposing effects on total protein expression versus phosphorylation. Thus, all compounds modulated signaling downstream of the TCR in a manner that is likely to impact T-cell activation and activity.
(§5) CD8+ cells were obtained from the inguinal, axillary, brachial, and mesenteric lymph nodes previously collected from OT-1 mice. Lymph node cells were isolated by mashing through a […] cell strainer. Cells were resuspended in IMDM cell media at a concentration of 0.3 million cells/mL. N4 ovalbumin peptide was added at a concentration of 10 nM, and cells were incubated for 48 h at 5% CO2, 37 °C. On day 2 from recollection, cells were pelleted at 1300 rpm for 5 min and washed with PBS to remove N4 peptide. The cell pellet was resuspended in fresh IMDM media in a new flask in a 0.3 million cells/mL and supplemented with IL-2 at 20 ng/mL. After incubation for a further 48 h (day 4), cells were re-seeded in fresh IMDM media at a concentration of 0.3 million cells/mL supplemented with IL-2 at 20 ng/mL. Cells were cultured for a further 48 h prior to use on day 6 in functional assays.
(§6) To study the effect of the compounds in the signaling pathway of CTLs, the compound was incubated for 24 h at 20 μM. After this time, cells were collected and washed twice in PBS and lysed in radioimmunoprecipitation assay (RIPA) lysis buffer (50 mM tris-HCl at pH 7.4, 150 mM sodium chloride, 5 mM EGTA, 0.1% SDS, 1% NP-40, and 1% deoxycholate) supplemented with a protease and phosphatase inhibitor cocktail (mini complete ULTRA Protease tablet and phosSTOP tablet from Roche, Basel, Switzerland). Lysates were clarified by high-speed centrifugation (17,000 rpm for 15 min at 4 °C). Protein concentration was measured using a Micro BCA Protein Assay (Thermo Scientific, Waltham, MA, USA), and 10 μg to 30 μg of total protein were supplemented with 2X SDS sample buffer [tris (pH 6.8), 20% glycerol, 5% SDS, b-mercaptoethanol, and bromophenol blue) and boiled at 95 °C for 5 min. […] Bound Ab was detected by incubation with anti-rabbit and anti-mouse horseradish peroxidase secondary Ab (Cell Signaling Technology) and visualized using the Bio-Rad ChemiDoc MP Imaging System.
Background: Immunoblotting shows a protein as a band on a membrane.

The next data set concerns Fyn. Nature of the data set: Immunoblotting of OT-1 CTL signaling proteins: FYN. As to conditions: OT-1, 20 μM, 24 h. In kind it is cell-based, mice.
Source text: as §4, §5, §6

Data set [5] relates to HMEC-1 microtube formation. Nature of the data set: Tube formation inhibition assay on Matrigel. The note with it: HMEC-1 on Matrigel, 24 h. In kind it is cell-based, human. On the procedure:
The capacity to inhibit the formation of a new vasculature network formed by HMEC-1 was evaluated on compounds 8 and 14 at different concentrations.
Wells of an IBIDI μ-slide angiogenesis (IBIDI, Martinsried, Germany) were coated with 15 μL of Matrigel® (10 mg/mL, BD Biosciences) at 4 °C. After gelatinization at 37 °C for 30 min, HMEC-1 cells were seeded at 2 × 10^4 cells/well in 25 μL of culture medium on top of the Matrigel and were incubated 30 min at 37 °C while are attached. Then, compounds were added and dissolved in 25 μL of culture medium, and after 24 h of incubation at 37 °C, tube formation was evaluated.

Turning to `COc1ccc(COc2cccc(NC(=O)Nc3ccccc3)c2)cc1` [Compound 1], the IC50 (in general, the concentration needed to halve the response being measured) in [1] is 6 ± 3 µM; in data set [2] it was 1.4 ± 0.2 µM; in data set [3], above 100 µM; in [4], 21 ± 10 µM; in the data set with Jurkat T cells, above 100 µM.

In the case of `COc1ccc(COc2cccc(NC(=O)Nc3cccc(F)c3)c2)cc1` [Compound 3], the melting point (as a rule, the temperature, or range, at which the solid turns liquid) fell in the range of 202 to 203 °C. Also, in [1], the IC50 is above 100 µM and the “effect on cancer cell proliferation (A-549), in words” value (“effect … (A-549), in words” for short) is “no effect”. This compound returned an IC50 in data set [2] of 3.7 ± 0.8 µM. Also, the IC50 in [3] was above 100 µM. Moreover, in [4], the IC50 is above 100 µM and the “effect on cancer cell proliferation (HT-29), in words” value (“effect … (HT-29), in words” for short) is “no effect”. The same compound displayed an IC50 in the data set with Jurkat T cells above 100 µM.

With `COc1ccc(COc2cccc(NC(=O)Nc3ccccc3F)c2)cc1` [Compound 4], the melting point was in the range of 185 to 186 °C. Also, in data set [1], the IC50 was above 100 µM and the “effect … (A-549), in words” value is recorded as “no effect”. Besides, half-maximal inhibition in data set [2] (IC50) required 16 ± 4 µM. The IC50 in data set [3] was above 100 µM. Moreover, in data set [4], the IC50 is above 100 µM and the “effect … (HT-29), in words” value is on record as “no effect”. Further, the IC50 in the data set with Jurkat T cells is above 100 µM.

As to `COc1ccc(COc2cccc(NC(=O)Nc3ccc(Cl)cc3)c2)cc1` [Compound 5], the IC50 in data set [1] was 15 ± 2 µM; in data set [2], above 100 µM; in [3], above 100 µM; in [4] it was 12 ± 4 µM; in the data set with Jurkat T cells it was above 100 µM. The “SI (A-549) (IC50HEK293/A-549)” value in data set [1] (selectivity index) is recorded as above 7. Also, in data set [4] (selectivity index), the “SI (HT-29) (IC50HEK293/IC50HT-29)” value is listed as above 8.

With `COc1ccc(COc2cccc(NC(=O)Nc3cccc(Cl)c3)c2)cc1` [Compound 6], the IC50 is above 100 µM in data set [1]; 3.3 ± 0.5 µM in data set [2]; above 100 µM in [3]; 38 ± 15 µM in data set [4]; above 100 µM with Jurkat T cells. Also, the “effect … (HT-29), in words” value in [4] was “only active in HT-29”.

`COc1ccc(COc2cccc(NC(=O)Nc3ccccc3Cl)c2)cc1` [Compound 7]: the melting point turned out to be 183.4 °C. The IC50 in data set [1] was 48 ± 3 µM. In data set [2], this compound gave an IC50 of 27 ± 9 µM. In addition, in [3], the IC50 is above 100 µM. Also, the IC50 in data set [4] worked out at 50 ± 4 µM. In the data set with Jurkat T cells, the IC50 was above 100 µM.

Consider `COc1ccc(COc2cccc(NC(=O)Nc3cccc(Br)c3)c2)cc1` [Compound 9], for which the melting point came out at 198.5 °C. In addition, the IC50 in data set [1] was 3.9 ± 0.4 µM. Moreover, in the data set with LCK, the “LCK protein expression (Western blot quantification)” value was determined as 180, the “pY394-LCK protein expression (Western blot quantification)” value worked out at 175 and the “pY505-LCK protein expression (Western blot quantification)” value is recorded as 154. Besides, the “FYN protein expression (Western blot quantification)” value with Fyn was 108. For the same compound, it took 0.7 ± 0.3 µM to reach half-maximal inhibition in data set [2] (IC50). For the same compound, in [3], the IC50 was above 100 µM. For the same compound, in data set [4], the IC50 came out at 25 ± 2 µM. The IC50 in the data set with Jurkat T cells is above 100 µM.

Take `COc1ccc(COc2cccc(NC(=O)Nc3ccccc3Br)c2)cc1` [Compound 10]: the melting point was found to be 198.5 °C. For the same compound, in [1], the IC50 came to 25 ± 1 µM. Moreover, in [2], inhibition was half-maximal at 8.7 ± 0.7 µM (IC50). In addition, the IC50 in [3] was above 100 µM. Moreover, the IC50 in data set [4] was 41 ± 5 µM. Further, the IC50 with Jurkat T cells was above 100 µM.

`COc1ccc(COc2cccc(NC(=O)Nc3cccc(OC)c3)c2)cc1` [Compound 12]: the melting point was 137.5 to 168.9 °C. Further, in [1], the IC50 is above 100 µM and the “effect … (A-549), in words” value is “no effect”. This compound returned an IC50 in data set [2] of 12 ± 1 µM. This compound also returned an IC50 in data set [3] above 100 µM. Besides, in data set [4], the IC50 is above 100 µM and the “effect … (HT-29), in words” value is “no effect”. Moreover, in the data set with Jurkat T cells, the IC50 is above 100 µM.

Regarding `COc1ccc(COc2cccc(NC(=O)Nc3ccccc3OC)c2)cc1` [Compound 13], the melting point was 160 to 161.6 °C. For the same compound, in data set [1], the IC50 was above 100 µM and the “effect … (A-549), in words” value is recorded as “no effect”. In [2], the IC50 is above 100 µM. The compound also displayed an IC50 in data set [3] above 100 µM. Also, in [4], the IC50 is above 100 µM and the “effect … (HT-29), in words” value is “no effect”. In addition, the half-inhibitory concentration (IC50) in the data set on Jurkat T cells was above 100 µM.

For the compound `CCN(CC)CCNC(=O)c1c(C)[nH]c(/C=C2\C(=O)Nc3ccc(F)cc32)c1C` [Sunitinib, sunitinib, reference compound], the “Minimum Active Conc. (inhibition of microtube formation)” value in data set [5] stood at 3 µM.
